The target in experiment [1] is T1, Sphingosine 1-phosphate receptor 4 (Homo sapiens, UniProt O95977).
T1 sequence (O95977 whole entry): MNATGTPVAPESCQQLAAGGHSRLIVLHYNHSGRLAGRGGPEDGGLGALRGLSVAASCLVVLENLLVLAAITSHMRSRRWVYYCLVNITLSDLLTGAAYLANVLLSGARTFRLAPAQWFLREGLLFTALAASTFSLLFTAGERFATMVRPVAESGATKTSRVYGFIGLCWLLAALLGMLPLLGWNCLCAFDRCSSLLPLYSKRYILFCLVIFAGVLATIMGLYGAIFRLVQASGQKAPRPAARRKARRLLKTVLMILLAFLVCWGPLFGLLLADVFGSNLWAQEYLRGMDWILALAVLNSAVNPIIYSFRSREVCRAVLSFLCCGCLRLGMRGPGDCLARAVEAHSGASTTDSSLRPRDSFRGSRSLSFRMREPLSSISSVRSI
The experiment is described as follows: Late-stage fluorescence dose response cell-based assay to identify agonists of the Sphingosine 1-Phosphate Receptor 4 (S1P4): purchased compounds EC50. [Related pubchem assays (depositor defined):AID1509, AID1523, AID1563, AID1686, AID1701, AID1801]. The class given is functional.

Experiment [2] addresses T2, Mu-type opioid receptor (Homo sapiens, UniProt P35372). The experiment is described as follows: SAR Analysis of Antagonists of the MOR Receptor using an Image-Based Assay - Set 3. [Related pubchem assays (depositor defined):AID1777, AID1785, AID1786, AID1966, AID2133, AID2136, AID2284, AID2285, AID2420]. Type of experiment: functional.
Experiment [3] concerns the target T3, Kappa-type opioid receptor (Homo sapiens, UniProt P41145). The experiment can be described thus: SAR analysis of Antagonists of the Kappa Opioid Receptor (KOR) using an Image-Based Assay - Set 3. [Related pubchem assays (depositor defined):AID1777, AID1785]. Type of experiment: functional.
Experiment [4] deals with T3, Kappa-type opioid receptor. The experiment can be described thus: SAR analysis of small molecule antagonists of the kappa opioid receptor via a luminescent beta-arrestin assay - Set 3. [Related pubchem assays (depositor defined):AID1777, AID1778, AID1785, AID1786, AID1966, AID2133, AID2136, AID2285, AID2495]. Type of experiment: functional.
The target of experiment [5] is T4, Delta-type opioid receptor (Homo sapiens, UniProt P41143). The experiment is described as follows: SAR Analysis of Antagonists of the DOR Receptor using an Image-Based Assay - Set 3. [Related pubchem assays (depositor defined):AID1777, AID1785]. The class given is functional.
T4 sequence (P41143 whole entry): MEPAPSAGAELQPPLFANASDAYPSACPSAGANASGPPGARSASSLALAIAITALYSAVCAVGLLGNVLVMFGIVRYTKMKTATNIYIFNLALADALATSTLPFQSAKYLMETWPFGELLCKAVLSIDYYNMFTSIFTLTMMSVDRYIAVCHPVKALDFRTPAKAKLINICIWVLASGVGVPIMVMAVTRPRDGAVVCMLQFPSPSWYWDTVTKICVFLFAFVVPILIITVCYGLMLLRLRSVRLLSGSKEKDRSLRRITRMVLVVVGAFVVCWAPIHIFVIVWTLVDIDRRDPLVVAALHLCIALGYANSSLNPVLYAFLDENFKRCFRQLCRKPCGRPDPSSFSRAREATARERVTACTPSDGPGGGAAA
For experiment [6], the target named is E3 ubiquitin-protein ligase Mdm2 (Homo sapiens, UniProt Q00987). The experiment is described as follows: enhancers of MDM2-luciferase reporter signal, concentration-effect titration, project on inhibitors of MDM2 ubiquitin ligase, cellular assay, luminescent readout, 384-well plate format (AID 1394).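 Further: MDM2 E3 inhibitors raise luminescence so EC50 is for signal enhancement.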 Type of experiment: functional.
The target of experiment [7] is Hepatocyte nuclear factor 4-alpha (Homo sapiens, UniProt P41235). The class given is functional, cell-based.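 Further: biochemical luminescence-based dose-response counterscreen measuring inhibition of HNF4 dimerization, run alongside a screen for blockers of ABHD5–perilipin-5 interaction; split luciferase complementation of HNF4 fusion proteins in cell lysate measuring dimerization.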
In experiment [8] the target is T5, Microphthalmia-associated transcription factor (Homo sapiens, UniProt O75030).
T5 sequence (O75030 whole entry): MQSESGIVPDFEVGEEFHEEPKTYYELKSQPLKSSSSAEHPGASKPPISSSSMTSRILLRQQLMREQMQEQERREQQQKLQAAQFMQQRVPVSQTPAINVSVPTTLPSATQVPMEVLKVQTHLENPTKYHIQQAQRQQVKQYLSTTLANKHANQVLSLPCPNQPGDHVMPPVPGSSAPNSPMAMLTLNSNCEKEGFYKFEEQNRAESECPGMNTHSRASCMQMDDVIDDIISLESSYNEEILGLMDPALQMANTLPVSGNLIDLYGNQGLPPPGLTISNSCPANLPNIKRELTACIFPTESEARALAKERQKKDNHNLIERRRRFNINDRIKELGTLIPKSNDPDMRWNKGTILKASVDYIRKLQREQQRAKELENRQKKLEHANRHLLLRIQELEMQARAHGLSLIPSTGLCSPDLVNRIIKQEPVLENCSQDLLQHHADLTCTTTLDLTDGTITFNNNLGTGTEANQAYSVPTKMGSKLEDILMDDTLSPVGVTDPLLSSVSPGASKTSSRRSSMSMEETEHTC
The experiment can be described thus: TRPM1 promoter luciferase signal decrease, dose response, MITF inhibitor project, cell-based, SK-MEL-5, cherry-picked, set 3 (AID 493073).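 Further: SK-MEL-5 melanoma cells with luciferase driven by the MITF target TRPM1 promoter.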 Type of experiment: functional.

Experiment [9] addresses T6, Voltage-gated N-type calcium channel alpha-1B subunit/Amyloid beta A4 precursor protein-binding family A member 1 (Homo sapiens, UniProt Q00975+Q02410). The class given is protein assay.
In experiment [10] the target is T6, Voltage-gated N-type calcium channel alpha-1B subunit/Amyloid beta A4 precursor protein-binding family A member 1. Type of experiment: protein assay. The source holds these as a separate data set.
For experiment [11], the target named is T7, E3 ubiquitin-protein ligase XIAP (Homo sapiens, UniProt P98170). The experiment is described as follows: XIAP antagonists, biochemical, IAP family, fluorescence polarization (AID 1018). Type of experiment: functional.
T7 sequence (P98170 whole entry): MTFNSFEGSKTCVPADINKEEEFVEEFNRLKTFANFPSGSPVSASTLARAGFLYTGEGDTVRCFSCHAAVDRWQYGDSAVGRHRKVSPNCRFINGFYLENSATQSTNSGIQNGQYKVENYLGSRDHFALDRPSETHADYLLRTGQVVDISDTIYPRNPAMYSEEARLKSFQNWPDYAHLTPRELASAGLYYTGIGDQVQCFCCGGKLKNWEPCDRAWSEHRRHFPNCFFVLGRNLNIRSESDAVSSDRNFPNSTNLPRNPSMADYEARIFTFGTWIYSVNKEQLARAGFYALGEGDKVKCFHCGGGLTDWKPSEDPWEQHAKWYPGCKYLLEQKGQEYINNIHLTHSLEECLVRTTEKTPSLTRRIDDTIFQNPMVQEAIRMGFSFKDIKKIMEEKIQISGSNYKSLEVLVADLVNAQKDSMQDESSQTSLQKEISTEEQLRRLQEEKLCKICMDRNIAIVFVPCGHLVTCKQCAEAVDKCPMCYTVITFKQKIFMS
For experiment [12], the target named is T7, E3 ubiquitin-protein ligase XIAP. The experiment can be described thus: Counter Screen using XIAP-Bir3 for Chemical Antagonists of Bir1/2 domains of IAP-family anti-apoptotic proteins. [Related pubchem assays (depositor defined):AID1018, AID1449, AID1514, AID1638, AID1749, AID1750, AID488957, AID488963].
The target of experiment [13] is T3, Kappa-type opioid receptor. The experiment can be described thus: KOR agonist analogs, arrestin-GFP redistribution, SAR follow-up, imaging, image-based, set 3 (AID 488833). Type of experiment: functional.
Experiment [14] has as its target T3, Kappa-type opioid receptor. The experiment is described as follows: SAR analysis of small molecule agonists of the kappa opioid receptor via a luminescent beta-arrestin assay - Set 3. [Related pubchem assays (depositor defined):AID1777, AID1785, AID1786, AID1966, AID2133, AID2136, AID2284, AID2500]. Type of experiment: functional.
Experiment [15] concerns the target T2, Mu-type opioid receptor. The experiment can be described thus: SAR Analysis of Agonists of the MOR Receptor using an Image-Based Assay - Set 3. [Related pubchem assays (depositor defined):AID1777, AID1785, AID1786, AID1966, AID2133, AID2136, AID2284, AID2285, AID2352]. The class given is functional.
In experiment [16] the target is T4, Delta-type opioid receptor. The experiment is described as follows: SAR Analysis of Agonists of the DOR Receptor using an Image-Based Assay - Set 3. [Related pubchem assays (depositor defined):AID1777, AID1786]. The class given is functional.
Experiment [17] deals with Coagulation factor XII (Homo sapiens, UniProt P00748). Type of experiment: functional.

From ChEMBL document CHEMBL1201862, “PubChem BioAssay data set” (2004) come the findings set out here.

The source made the active and inactive calls. A value given as a limit tells only on which side of the number the result lay.

T3 sequence (P41145 whole entry): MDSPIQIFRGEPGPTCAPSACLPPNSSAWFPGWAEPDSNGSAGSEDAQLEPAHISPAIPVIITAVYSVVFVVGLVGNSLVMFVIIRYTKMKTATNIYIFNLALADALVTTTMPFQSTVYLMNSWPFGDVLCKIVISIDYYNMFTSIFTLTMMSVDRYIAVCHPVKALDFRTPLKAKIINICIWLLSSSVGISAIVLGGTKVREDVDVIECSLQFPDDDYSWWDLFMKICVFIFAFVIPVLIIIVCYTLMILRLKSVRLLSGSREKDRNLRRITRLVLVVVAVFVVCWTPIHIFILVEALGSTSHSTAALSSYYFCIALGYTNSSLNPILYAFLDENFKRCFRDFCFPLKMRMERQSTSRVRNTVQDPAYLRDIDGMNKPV
T6 sequence (Q00975 whole entry): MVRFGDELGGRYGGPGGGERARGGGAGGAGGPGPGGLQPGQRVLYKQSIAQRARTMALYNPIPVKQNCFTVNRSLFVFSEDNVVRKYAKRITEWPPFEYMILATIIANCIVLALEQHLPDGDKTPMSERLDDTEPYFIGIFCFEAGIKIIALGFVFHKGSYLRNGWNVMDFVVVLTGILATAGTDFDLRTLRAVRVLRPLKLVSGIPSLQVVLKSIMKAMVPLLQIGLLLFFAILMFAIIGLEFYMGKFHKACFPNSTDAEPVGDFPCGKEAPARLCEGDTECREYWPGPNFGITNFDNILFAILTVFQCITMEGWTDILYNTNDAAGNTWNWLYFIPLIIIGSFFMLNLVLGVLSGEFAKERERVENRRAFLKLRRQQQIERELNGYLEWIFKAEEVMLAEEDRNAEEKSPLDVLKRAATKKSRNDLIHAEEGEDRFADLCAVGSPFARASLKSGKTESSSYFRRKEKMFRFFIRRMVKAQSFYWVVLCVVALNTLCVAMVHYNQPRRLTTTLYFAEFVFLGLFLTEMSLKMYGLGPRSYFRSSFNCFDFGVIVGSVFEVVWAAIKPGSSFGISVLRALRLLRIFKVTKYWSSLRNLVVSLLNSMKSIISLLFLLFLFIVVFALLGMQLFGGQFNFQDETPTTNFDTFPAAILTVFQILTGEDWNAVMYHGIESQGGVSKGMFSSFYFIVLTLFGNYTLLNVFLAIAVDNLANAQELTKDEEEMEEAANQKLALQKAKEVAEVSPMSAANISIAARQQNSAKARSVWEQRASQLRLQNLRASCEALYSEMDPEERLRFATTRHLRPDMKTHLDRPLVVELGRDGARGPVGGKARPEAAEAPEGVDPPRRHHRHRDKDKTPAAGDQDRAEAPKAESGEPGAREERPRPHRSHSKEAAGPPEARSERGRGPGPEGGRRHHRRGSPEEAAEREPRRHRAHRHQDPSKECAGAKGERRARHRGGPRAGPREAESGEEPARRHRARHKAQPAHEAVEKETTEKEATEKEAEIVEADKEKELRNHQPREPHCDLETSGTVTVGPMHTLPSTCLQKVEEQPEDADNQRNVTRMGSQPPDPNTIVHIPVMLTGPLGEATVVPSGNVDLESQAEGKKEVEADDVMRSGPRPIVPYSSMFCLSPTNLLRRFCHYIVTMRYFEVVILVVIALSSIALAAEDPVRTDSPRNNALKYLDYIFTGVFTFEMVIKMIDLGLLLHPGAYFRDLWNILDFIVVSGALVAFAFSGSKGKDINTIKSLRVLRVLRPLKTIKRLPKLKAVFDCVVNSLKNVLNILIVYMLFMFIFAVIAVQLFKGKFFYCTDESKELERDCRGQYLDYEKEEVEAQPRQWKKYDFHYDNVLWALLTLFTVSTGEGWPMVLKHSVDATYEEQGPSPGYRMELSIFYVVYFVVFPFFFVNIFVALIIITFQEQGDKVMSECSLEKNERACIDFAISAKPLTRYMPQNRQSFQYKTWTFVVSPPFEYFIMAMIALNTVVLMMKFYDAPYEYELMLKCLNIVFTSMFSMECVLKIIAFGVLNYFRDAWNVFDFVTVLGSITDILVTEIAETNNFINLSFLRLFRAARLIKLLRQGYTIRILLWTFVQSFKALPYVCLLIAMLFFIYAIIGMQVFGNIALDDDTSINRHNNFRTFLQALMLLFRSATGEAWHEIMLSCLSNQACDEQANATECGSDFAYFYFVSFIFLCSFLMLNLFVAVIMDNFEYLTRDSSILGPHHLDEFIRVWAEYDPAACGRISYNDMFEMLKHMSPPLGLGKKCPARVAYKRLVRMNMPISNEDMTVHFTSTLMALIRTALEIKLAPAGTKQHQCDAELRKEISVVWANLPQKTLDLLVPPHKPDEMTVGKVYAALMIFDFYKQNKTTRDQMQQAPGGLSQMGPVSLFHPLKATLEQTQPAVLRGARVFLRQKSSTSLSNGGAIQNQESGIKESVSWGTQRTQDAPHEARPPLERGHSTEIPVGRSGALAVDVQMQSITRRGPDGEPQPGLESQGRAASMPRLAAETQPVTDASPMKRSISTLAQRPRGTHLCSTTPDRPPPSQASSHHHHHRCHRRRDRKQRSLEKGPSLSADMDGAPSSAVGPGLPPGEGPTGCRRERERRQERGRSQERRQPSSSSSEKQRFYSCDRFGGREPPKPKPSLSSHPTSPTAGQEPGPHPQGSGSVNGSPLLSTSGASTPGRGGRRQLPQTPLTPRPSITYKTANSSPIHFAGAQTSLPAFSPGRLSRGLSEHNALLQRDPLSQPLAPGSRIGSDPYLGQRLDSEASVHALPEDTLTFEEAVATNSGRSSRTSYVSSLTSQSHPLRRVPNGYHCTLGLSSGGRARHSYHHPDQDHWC
T6 sequence (Q02410 whole entry): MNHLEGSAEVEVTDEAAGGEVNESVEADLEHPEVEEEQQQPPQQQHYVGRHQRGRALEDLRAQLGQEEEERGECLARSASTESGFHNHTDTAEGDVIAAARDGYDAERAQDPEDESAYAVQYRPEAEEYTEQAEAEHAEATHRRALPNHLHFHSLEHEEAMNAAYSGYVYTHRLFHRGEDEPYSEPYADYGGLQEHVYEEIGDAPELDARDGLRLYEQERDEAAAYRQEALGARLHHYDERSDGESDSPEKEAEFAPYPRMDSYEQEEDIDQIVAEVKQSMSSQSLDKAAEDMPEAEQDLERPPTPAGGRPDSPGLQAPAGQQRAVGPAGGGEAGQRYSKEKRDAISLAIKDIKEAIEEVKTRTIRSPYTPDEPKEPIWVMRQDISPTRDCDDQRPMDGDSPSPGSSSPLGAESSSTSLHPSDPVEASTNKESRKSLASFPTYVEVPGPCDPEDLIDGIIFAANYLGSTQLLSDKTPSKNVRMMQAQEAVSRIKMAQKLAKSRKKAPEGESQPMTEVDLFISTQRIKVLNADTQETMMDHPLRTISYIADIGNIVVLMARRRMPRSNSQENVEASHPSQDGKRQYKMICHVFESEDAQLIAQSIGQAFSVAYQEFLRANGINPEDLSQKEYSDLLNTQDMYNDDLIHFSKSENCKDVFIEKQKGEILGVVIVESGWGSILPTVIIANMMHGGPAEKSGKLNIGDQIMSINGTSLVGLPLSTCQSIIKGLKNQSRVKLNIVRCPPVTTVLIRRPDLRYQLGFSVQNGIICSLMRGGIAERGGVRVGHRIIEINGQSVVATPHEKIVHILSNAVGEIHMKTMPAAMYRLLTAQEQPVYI
T2 sequence (P35372 whole entry): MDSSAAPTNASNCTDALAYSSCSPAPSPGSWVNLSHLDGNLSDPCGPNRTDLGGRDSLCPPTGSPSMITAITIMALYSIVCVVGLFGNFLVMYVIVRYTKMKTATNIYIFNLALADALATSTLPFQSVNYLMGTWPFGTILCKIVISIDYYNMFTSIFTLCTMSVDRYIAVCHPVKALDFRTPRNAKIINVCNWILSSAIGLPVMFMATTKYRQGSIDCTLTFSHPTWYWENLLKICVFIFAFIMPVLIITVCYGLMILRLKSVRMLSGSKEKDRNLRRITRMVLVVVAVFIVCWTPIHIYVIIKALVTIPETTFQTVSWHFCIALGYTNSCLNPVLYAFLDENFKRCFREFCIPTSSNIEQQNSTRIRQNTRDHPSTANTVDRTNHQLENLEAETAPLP

Consider `Cc1ccc(OCc2ccc(Cl)cc2)c([N+](=O)[O-])n1`, for which the EC50 in experiment [1] was > 50 µM (inactive).

Turning to `CC(C)N(CCNC(=O)c1ccc(CNS(=O)(=O)c2ccc(Br)cc2)cc1)Cc1ccccc1`, the IC50 in experiment [2] was 3.22 µM (active); in experiment [3] it was 0.421 µM (active); in [4] it was 1.32 µM (active); in experiment [5] it was > 32 µM (inactive).

As for `COCCNC(=O)/C(C#N)=C/c1cccc(/C=C(\C#N)C(=O)NCCOC)c1`, the EC50 in [6] was 0.94 µM (active). For the same compound, the IC50 is 1.51 µM (active) in experiment [7], > 50 µM (inactive) in experiment [9] and > 56.8 µM (not active) in experiment [10]. Also, the AC50 in [8] is 12.7 µM (active).

For `CCNC(=O)CSc1nnc(-c2cccc(S(=O)(=O)N(CC)CC)c2)n1CCc1ccccc1`, the IC50 in experiment [11] is > 100 µM (not active); in experiment [12], > 100 µM (inactive).

Consider `Clc1ccccc1CSc1nnc(-c2ccccn2)n1Cc1cccs1`, for which the EC50 is 4.06 µM (active) in experiment [13], 10.1 µM (inactive) in experiment [14], > 32 µM (inactive) in experiment [15] and > 32 µM (inactive) in experiment [16].

With `CC(C(=O)Oc1ccc2c(c1)OCO2)N1C(=O)c2ccccc2C1=O` (configuration not stated), the IC50 in experiment [17] is > 50 µM (inactive).
